The experiment addresses T1, human RXFP1 (Homo sapiens, UniProt Q9HBX9).
T1 construct: expressed in transfected cells
T1 sequence (Q9HBX9 1-757): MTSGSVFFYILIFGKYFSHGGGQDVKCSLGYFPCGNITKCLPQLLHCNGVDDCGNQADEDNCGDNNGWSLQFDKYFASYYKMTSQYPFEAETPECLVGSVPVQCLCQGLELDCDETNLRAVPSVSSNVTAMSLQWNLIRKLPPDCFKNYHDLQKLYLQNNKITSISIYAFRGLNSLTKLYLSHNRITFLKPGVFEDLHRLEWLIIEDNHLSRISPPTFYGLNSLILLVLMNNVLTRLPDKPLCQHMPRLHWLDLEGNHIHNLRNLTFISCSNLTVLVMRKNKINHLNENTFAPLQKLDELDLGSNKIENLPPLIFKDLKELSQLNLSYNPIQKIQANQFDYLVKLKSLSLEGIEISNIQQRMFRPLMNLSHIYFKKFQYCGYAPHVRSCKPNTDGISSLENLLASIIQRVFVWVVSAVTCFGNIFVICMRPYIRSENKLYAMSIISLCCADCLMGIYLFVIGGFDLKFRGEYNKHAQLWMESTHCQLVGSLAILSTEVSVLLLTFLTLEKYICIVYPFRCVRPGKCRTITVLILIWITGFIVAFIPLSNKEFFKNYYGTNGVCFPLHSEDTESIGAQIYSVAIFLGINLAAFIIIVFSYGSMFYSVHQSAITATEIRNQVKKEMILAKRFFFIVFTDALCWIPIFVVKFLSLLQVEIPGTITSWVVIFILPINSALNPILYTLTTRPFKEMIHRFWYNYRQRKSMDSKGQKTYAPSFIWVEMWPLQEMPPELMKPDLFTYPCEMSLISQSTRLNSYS
Description: RXFP1 cAMP assay (hRXFP1 HEK293 cAMP assay, HTRF). Type of experiment: cell-based. The settings on record: HEK293 cells stably expressing human RXFP1, 30 min at room temperature, read-out: cAMP hRXFP1 HEK293 Assay EC50. As to the method: RXFP1 Cyclic Adenosine Monophosphate (cAMP) Assays. […] Cells were dissociated and suspended in assay buffer. The assay buffer was HBSS buffer (with calcium and magnesium) containing 20 mM HEPES, 0.05% BSA, and 0.5 mM IBMX. Cells (3000 cells per well, except 1500 cell per well for HEK293 cells stably expressing human RXFP1) were added to 384-well Proxiplates (Perkin-Elmer). Cells were immediately treated with test compounds in DMSO (2% final) at final concentrations in the range of 0.010 nM to 50 μM. Cells were incubated for 30 min at room temperature. The level of intracellular cAMP was determined using the HTRF HiRange cAMP assay reagent kit (Cisbio) according to manufacturer's instructions. Solutions of cryptate conjugated anti-cAMP and d2 fluorophore-labelled cAMP were made in a supplied lysis buffer separately. Upon completion of the reaction, the cells were lysed with equal volume of the d2-cAMP solution and anti-cAMP solution. […] The potency and activity of a compound to […] cAMP production was then determined by fitting to a 4-parametric logistic equation from a plot of cAMP level versus compound concentrations.

SMILES strings stand for the structures. Structures can show the parent of a compound that is named as a salt.

Here are results for 32 compounds from patent publication US20250221966A1, “RXFP1 AGONISTS” (BRISTOL-MYERS SQUIBB COMPANY, priority 2021, published 2025).

On to `COc1ccc(-c2cnn3c2COCC3)cc1C(=O)N[C@H]1[C@@H](C(=O)N[C@H](C)C2(C)CC2)[C@H]2CC[C@@H]1/C2=C\C1CC1` [compound 745], for which the EC50 (usually the concentration needed to bring the measured effect to its halfway point) turned out to be 1.2 nM. The figure for `COc1ccc(-c2cc(S(C)(=O)=O)ccc2F)cc1C(=O)N[C@H]1[C@@H](C(=O)Nc2ccc(F)c(C(F)(F)F)c2)[C@H]2CC[C@@H]1/C2=C\C1CCCC1` [compound 907] is 0.1 nM; for `COc1ccc(C2=NOC3COCC23)cc1C(=O)N[C@H]1[C@@H](C(=O)NCc2ccccc2OC(F)(F)F)[C@H]2CC[C@@H]1/C2=C\C1CC1` (some centres unmarked) [compound 588] it is 82 nM. With `COc1ccc(C2=NOC3CCCC23)cc1C(=O)N[C@@H]1C2CCC(/C2=C/C2CC2)[C@@H]1C(=O)Nc1ccc(F)c(C(F)(F)F)c1` (stereo partly drawn) [Example 439, (1R,2S,3R,4R,Z)-7-(cyclopropylmethylene)-N-(4-fluoro-3-(trifluoromethyl)phenyl)-3-(2-methoxy-5-(3a,5,6,6a-tetrahydro-4H-cyclopenta[d]isoxazol-3-yl)benzamido)bicyclo[2.2.1]heptane-2-carboxamide] the figure was 30 nM; with `O=C(O)c1ccc(F)c(-c2ccc(OCCO)c(C(=O)N[C@@H]3C4CCC(/C4=C/C(F)(F)F)[C@@H]3C(=O)Nc3ccc(F)c(C(F)(F)F)c3)c2)c1` (some centres unmarked) [compound 321], 91 nM; with `CCCOc1c(F)cc(C2=NOC3CC(CO)CC23)cc1C(=O)N[C@H]1[C@@H](C(=O)Nc2ccc(F)c(C(F)(F)F)c2)[C@H]2CC[C@@H]1/C2=C\C1CC1` (some centres unmarked) [compound 779], 1.6 nM. As to `COc1ccc(-n2cc(C(NC(=O)C3CCOCC3)C(=O)O)cn2)cc1C(=O)N[C@@H]1C2CCC(/C2=C/C(F)(F)F)[C@@H]1C(=O)Nc1ccc(F)c(C(F)(F)F)c1` (some centres unmarked) [compound 347], the EC50 was 62 nM. With `COc1ccc(-c2ccnc(N3CCOCC3)c2F)cc1C(=O)N[C@H]1[C@@H](C(=O)Nc2ccc(F)c(C(F)(F)F)c2)[C@H]2CC[C@@H]1C2=C(C)C` [compound 85] the figure was 130 nM; with `COc1ccc(C2=NOC3CC(CO)CC23)cc1C(=O)N[C@H]1[C@@H](C(=O)Nc2ccc(F)c(C(F)(F)F)c2)[C@H]2CC[C@@H]1/C2=C\C(C)C` (some centres unmarked) [compound 454], 1.9 nM; with `COc1ccc(N2CCCC(CO)C2)cc1C(=O)NC1C2CCC(/C2=C/C(F)(F)F)C1C(=O)Nc1ccc(F)c(C(F)(F)F)c1` (stereo in doubt) [Example 329, (1R,2R,3R,4R,Z)—N-(4-fluoro-3-(trifluoromethyl)phenyl)-3-(5-(3-(hydroxymethyl)piperidin-1-yl)-2-methoxybenzamido)-7-(2,2,2-trifluoroethylidene)bicyclo[2.2.1]heptane-2-carboxamide], 4810 nM. With `COc1ccc(C2=NOC3CC(O)CC23)cc1C(=O)N[C@H]1[C@@H](C(=O)Nc2ccc(F)c(C(F)(F)F)c2)[C@H]2CC[C@@H]1/C2=C\C1CCC1` (mixture of isomers) [Example 406, (1R,2S,3R,4R,Z)-7-(cyclobutylmethylene)-N-(4-fluoro-3-(trifluoromethyl)phenyl)-3-(5-(5-hydroxy-3a,5,6,6a-tetrahydro-4H-cyclopenta[d]isoxazol-3-yl)-2-methoxybenzamido)bicyclo[2.2.1]heptane-2-carboxamide] the figure was 48 nM. Regarding `COc1ccc(-c2cccc3c2CN(C(=O)N(C)c2ccccc2)C3)cc1C(=O)N[C@H]1[C@@H](C(=O)Nc2ccc(F)c(C(F)(F)F)c2)[C@H]2CC[C@@H]1/C2=C\C1CC1` [compound 886], the EC50 stood at 2.7 nM. With `C=C(C)/C=C1\C2CCC1[C@H](C(=O)Nc1ccc(F)c(C(F)(F)F)c1)[C@@H]2NC(=O)c1cc(F)c(F)cc1OC` (some centres unmarked) [compound 43] the figure was 70 nM; with `COc1ccc(C2=NOC3CC(C(=O)O)CC23)cc1C(=O)N[C@H]1[C@@H](C(=O)Nc2ccc(F)c(C(F)(F)F)c2)[C@H]2CC[C@@H]1/C2=C\C1CC1` (some centres unmarked) [compound 851], 2.8 nM; with `COc1ccc(C2=NOC3COCC23)cc1C(=O)N[C@H]1[C@@H](C(=O)N[C@@H](C)C(C)(C)C)[C@H]2CC[C@@H]1/C2=C\C1CC1` (some centres unmarked) [compound 541], 30 nM. With `COc1c(F)cc(C2=NOC(CO)C2)cc1C(=O)N[C@H]1[C@@H](C(=O)Nc2ccc(F)c(C(F)(F)F)c2)[C@H]2CC[C@@H]1/C2=C\CC(O)C(F)(F)F` (some centres unmarked) [compound 835] the figure was 3.9 nM; with `COCCN1CCCC1c1ccc(OC)c(C(=O)N[C@@H]2C3CCC(C3=CC3CC3)[C@@H]2C(=O)Nc2ccc(F)c(C(F)(F)F)c2)c1` (some centres unmarked) [compound 666], 373 nM; with `COc1ccc(C2=NOC3CCCC23)cc1C(=O)N[C@H]1[C@@H](C(=O)Nc2ccc(F)c(C(F)(F)F)c2)[C@H]2CC[C@@H]1/C2=C\C1CC1` (single isomer, unassigned) [Example 441], 360 nM. With `COCCOc1ccc(C2=NOC3COCC23)cc1C(=O)N[C@H]1[C@@H](C(=O)Nc2ccc(F)c(C(F)(F)F)c2)[C@H]2CC[C@@H]1/C2=C\C1CC1` (single isomer, unassigned) [Example 452] the figure was 1.8 nM; with `COc1ccc(C2=NOC3CC(CO)CC23)cc1C(=O)N[C@H]1[C@@H](C(=O)Nc2ccc(F)c(C(F)(F)F)c2)[C@H]2CC[C@@H]1/C2=C\C(C)C` (some centres unmarked) [compound 450], 1.6 nM. `COc1ccc(-c2cc(C(O)C(=O)O)ccc2F)cc1C(=O)NC1C2CCC(/C2=C/C2CCCC2)C1C(=O)Nc1ccc(F)c(C(F)(F)F)c1` (centres unmarked) [compound 355]: the EC50 turned out to be 3 nM. With `COc1ccc(-c2cc(C(O)C(=O)O)ccc2F)cc1C(=O)N[C@@H]1C2CCC(/C2=C/C2CC2)[C@@H]1C(=O)Nc1ccc(F)c(C(F)(F)F)c1` (some centres unmarked) [compound 181] the figure was 6 nM. With `COc1cc(F)c(F)cc1C(=O)N[C@@H]1C2CCC(/C2=C/c2ccccc2)[C@]1(F)C(=O)Nc1ccc(F)c(C(F)(F)F)c1` (some centres unmarked) [Example 53], the EC50 was 240 nM. The figure for `COc1ccc(-c2cc(C(NC(=O)COc3ccccc3)C(=O)O)ccc2F)cc1C(=O)N[C@@H]1C2CCC(/C2=C/C(F)(F)F)[C@@H]1C(=O)Nc1ccc(F)c(C(F)(F)F)c1` (some centres unmarked) [compound 244] is 7 nM; for `COc1ccc(-c2ccc(N3CCOCC3)c(C(=O)O)c2)cc1C(=O)N[C@H]1[C@@H](C(=O)Nc2ccc(F)c(C(F)(F)F)c2)[C@H]2CC[C@@H]1/C2=C\C1CC1` [Example 249, 3′-(((1R,2R,3S,4R,Z)-7-(cyclopropylmethylene)-3-((4-fluoro-3-(trifluoromethyl)phenyl)carbamoyl)bicyclo[2.2.1]heptan-2-yl)carbamoyl)-4′-methoxy-4-morpholino-[1,1′-biphenyl]-3-carboxylic acid, TFA] it is 5 nM; for `COc1ccc(C2=NOC3CN(C(=O)OC(C)(C)C)CC23)cc1C(=O)N[C@@H]1C2CCC(/C2=C/C2CC2)[C@@H]1C(=O)Nc1ccc(F)c(C(F)(F)F)c1` (some centres unmarked) [compound 436] it is 4 nM.

Turning to `COc1ccc(C2=NOC3CC(CO)CC23)cc1C(=O)N[C@H]1[C@@H](C(=O)Nc2ccc(F)c(C(F)(F)F)c2)[C@H]2CC[C@@H]1/C2=C\C(F)(F)F` (some centres unmarked) [compound 478], the EC50 came out at 6.5 nM. Take `COc1ccc(N2CCCC(C(=O)O)C2)cc1C(=O)N[C@@H]1C2CCC(/C2=C/c2ccccc2)[C@@H]1C(=O)Nc1ccc(F)c(C(F)(F)F)c1` (some centres unmarked) [Example 136]: the EC50 came out at 270 nM. In the case of `COc1ccc(C2=NOC(C(C)O)C2)cc1C(=O)N[C@H]1[C@@H](C(=O)Nc2ccc(F)c(C(F)(F)F)c2)[C@H]2CC[C@@H]1/C2=C\C1CC1` (single isomer, unassigned) [compound 509], the EC50 was 15.2 nM. With `COc1ccc(-c2cc(C(C)O)on2)cc1C(=O)N[C@@H]1C2CCC(/C2=C/C2CC2)[C@@H]1C(=O)Nc1ccc(F)c(C(F)(F)F)c1` (some centres unmarked) [compound 424] the figure was 11 nM. The figure for `COc1ccc(-c2cccnc2F)cc1C(=O)N[C@H]1[C@@H](C(=O)Nc2ccc(F)c(C(F)(F)F)c2)[C@H]2CC[C@@H]1/C2=C/c1ccccc1` [compound 95] is 420 nM. `COc1ccc(C2=NOC(C)(CO)C2)cc1C(=O)N[C@H]1[C@@H](C(=O)Nc2ccc(F)c(C(F)(F)F)c2)[C@H]2CC[C@@H]1C2=CC1CC1` (single isomer, unassigned) [compound 480]: the EC50 was 6.7 nM.
